Data reported in PMC3914206.

Key:
Format in all cases: binding
panel of 442 kinases [1] = target: T1, panel of 442 kinases (Homo sapiens, UniProt P14616); details: Compound Concentration 10 µM
T1 construct: purchased KINOMEscan
Excerpt: (§1) We assessed the selectivity of members of this scaffold using the KINOMEscan methodology across a near comprehensive panel of 442 kinases [[18,27]].

panel of 442 kinases [2] = target: T2, panel of 442 kinases (Homo sapiens, UniProt Q00526); details: Compound Concentration 10 µM
T2 construct: purchased KINOMEscan
T2 sequence (Q00526 whole entry): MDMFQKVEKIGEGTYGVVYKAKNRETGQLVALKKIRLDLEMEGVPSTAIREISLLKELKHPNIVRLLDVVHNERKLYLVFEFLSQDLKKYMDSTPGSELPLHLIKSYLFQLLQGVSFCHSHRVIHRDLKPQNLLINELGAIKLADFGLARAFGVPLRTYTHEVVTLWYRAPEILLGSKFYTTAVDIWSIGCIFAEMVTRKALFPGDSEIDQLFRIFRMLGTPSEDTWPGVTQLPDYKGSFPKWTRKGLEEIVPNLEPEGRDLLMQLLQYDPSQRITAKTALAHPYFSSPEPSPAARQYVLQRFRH
Excerpt: as §1

panel of 442 kinases [3] = target: T3, panel of 442 kinases (Homo sapiens, UniProt Q9NRH2); details: kinase SNRK; compound concentration 10 µM
T3 construct: purchased KINOMEscan
T3 sequence (Q9NRH2 1-765): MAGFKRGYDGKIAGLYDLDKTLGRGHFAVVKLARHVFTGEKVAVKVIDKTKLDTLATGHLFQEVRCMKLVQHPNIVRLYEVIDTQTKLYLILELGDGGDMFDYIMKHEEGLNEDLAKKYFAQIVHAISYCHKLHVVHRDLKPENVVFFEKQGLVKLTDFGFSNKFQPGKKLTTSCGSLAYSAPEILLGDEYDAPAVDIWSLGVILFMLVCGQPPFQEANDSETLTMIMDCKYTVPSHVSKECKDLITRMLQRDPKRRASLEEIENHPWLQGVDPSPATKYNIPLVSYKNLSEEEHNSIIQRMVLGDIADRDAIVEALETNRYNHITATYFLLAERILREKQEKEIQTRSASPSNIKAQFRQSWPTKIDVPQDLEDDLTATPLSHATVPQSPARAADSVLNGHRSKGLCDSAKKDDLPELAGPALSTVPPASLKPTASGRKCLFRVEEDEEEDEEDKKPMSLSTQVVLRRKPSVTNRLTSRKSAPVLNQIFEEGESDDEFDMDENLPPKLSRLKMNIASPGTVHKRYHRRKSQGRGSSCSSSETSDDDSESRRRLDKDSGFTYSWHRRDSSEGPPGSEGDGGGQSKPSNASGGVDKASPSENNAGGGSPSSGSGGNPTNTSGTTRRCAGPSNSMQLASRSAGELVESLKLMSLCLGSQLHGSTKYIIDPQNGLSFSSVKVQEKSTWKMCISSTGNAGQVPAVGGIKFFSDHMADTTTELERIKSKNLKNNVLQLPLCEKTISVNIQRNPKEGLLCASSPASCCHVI
Excerpt: as §1

T1 sequence (P14616 27-1297): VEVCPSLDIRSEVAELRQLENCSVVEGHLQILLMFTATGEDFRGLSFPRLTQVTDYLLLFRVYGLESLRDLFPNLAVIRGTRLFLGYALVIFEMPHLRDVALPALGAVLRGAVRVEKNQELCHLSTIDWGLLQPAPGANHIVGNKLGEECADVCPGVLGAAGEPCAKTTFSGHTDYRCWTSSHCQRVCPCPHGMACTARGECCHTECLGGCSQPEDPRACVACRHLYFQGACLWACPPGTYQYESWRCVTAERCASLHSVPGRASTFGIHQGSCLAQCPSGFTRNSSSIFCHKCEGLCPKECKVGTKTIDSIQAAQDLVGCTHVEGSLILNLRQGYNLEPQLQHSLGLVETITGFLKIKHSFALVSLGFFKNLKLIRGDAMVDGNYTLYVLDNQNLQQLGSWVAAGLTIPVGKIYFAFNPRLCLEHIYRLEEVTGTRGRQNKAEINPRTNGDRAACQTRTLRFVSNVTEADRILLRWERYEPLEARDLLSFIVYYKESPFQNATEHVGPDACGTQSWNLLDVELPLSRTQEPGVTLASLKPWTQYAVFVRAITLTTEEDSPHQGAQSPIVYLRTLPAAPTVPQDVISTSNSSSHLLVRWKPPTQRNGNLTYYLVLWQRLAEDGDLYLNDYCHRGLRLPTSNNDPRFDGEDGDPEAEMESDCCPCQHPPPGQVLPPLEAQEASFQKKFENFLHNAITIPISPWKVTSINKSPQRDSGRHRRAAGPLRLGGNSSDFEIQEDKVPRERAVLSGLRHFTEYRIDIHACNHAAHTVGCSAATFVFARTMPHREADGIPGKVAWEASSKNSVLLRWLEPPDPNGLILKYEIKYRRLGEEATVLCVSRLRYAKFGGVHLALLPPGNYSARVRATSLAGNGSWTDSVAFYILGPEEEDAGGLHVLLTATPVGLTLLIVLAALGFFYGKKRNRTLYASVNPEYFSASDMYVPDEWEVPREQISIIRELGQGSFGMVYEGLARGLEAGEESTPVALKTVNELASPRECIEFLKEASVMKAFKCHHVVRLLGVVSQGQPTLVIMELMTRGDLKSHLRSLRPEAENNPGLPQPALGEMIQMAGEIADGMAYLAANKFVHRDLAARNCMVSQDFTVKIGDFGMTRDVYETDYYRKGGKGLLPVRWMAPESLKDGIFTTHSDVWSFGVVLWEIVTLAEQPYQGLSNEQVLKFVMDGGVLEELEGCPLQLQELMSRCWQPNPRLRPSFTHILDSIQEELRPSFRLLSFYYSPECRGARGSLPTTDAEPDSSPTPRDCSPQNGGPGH

Compound | KINOMEscan: INSRR (panel of 442 kinases [1]) | KINOMEscan: CDK3 (panel of 442 kinases [2]) | % Ctrl, SNRK (panel of 442 kinases [3])
CCOc1cc(C(=O)N2CCC(N3CCN(C)CC3)CC2)ccc1Nc1ncc2c(n1)N(C1CCCC1)c1ccccc1C(=O)N2C [Compound 26] | 100 | 100 | 52 % Ctrl
COc1cc(C(=O)N2CCC(N3CCN(C)CC3)CC2)ccc1Nc1ncc2c(n1)N(C1CCCC1)c1ccccc1C(=O)N2C [Compound 25, 11-cyclopentyl-2-((2-methoxy-4-(4-(4-methylpiperazin-1-yl)piperidine-1-carbonyl)phenyl)amino)-5-methyl-5H-benzo[e]pyrimido[5,4-b][1,4]diazepin-6(11H)-one] | 94 | 100 | 72 % Ctrl
COc1cc(C(=O)N2CCC(N3CCN(C)CC3)CC2)ccc1Nc1ncc2c(n1)N(C)c1ccccc1C(=O)N2C [15 (LRRK2-IN-1)] | 97 | 100 | 94 % Ctrl
